Laboratory results taken from US12187722B2, “Small molecule inhibitors of TEAD transcription factors” (The General Hospital Corporation, priority 2019, dated 2025).

Biological target: TEAD2 (Homo sapiens (Human), UniProt Q15562)
Assay: In vitro palmitoylation (TEAD2 autopalmitoylation, streptavidin blot)
Type: biochemical
Conditions: compound at 10 μM
Protocol: Recombinant GST-TEAD2 or His6TEAD2 (500 ng) protein was pre-incubated with the compounds at indicated concentrations for 15 min. and then incubated with 1 μM of alkyne palmitoyl-5 CoA (Cayman Chemical) for 30 min or 50 mM MES, pH 6.4, followed by Click reaction with biotin-azide as previously described (Zheng, B. et al., J. Am. Chem. Soc., 2013, 135, 7082-7085). Click reaction was performed with 100 μM biotin-azide, 1 mM tris(2-carboxyethyl) phosphine hydrochloride (TCEP), 100 μM tris[(1-benzyl-1H-1,2,3-triazol-4-yl) methyl] amine (TBTA) and 1 mM CuSO4 for 1 h at RT.
The reactions were terminated by the addition of 12 μL of 6×SDS-sample loading buffer (50 mM Tris-HCl, pH 6.8, 6% SDS, 48% Glycerol, 0.03% Bromophenol Blue, 30 mM EDTA, 9% MeSH). Samples were analysed by SDS-PAGE and Western blot was performed by probing with streptavidin HRP and histidine HRP antibodies independently. Bands intensity obtained from streptavidin blot were quantified using BIORAD, Gel doc system and the percentage of inhibition of Tead2 auto palmitoylation is determined by comparing to the DMSO control treated samples.
These compounds were tested for activity in inhibiting TEAD2 palmitoylation in the assay described above.

Chain of TEAD2 (Q15562 whole entry): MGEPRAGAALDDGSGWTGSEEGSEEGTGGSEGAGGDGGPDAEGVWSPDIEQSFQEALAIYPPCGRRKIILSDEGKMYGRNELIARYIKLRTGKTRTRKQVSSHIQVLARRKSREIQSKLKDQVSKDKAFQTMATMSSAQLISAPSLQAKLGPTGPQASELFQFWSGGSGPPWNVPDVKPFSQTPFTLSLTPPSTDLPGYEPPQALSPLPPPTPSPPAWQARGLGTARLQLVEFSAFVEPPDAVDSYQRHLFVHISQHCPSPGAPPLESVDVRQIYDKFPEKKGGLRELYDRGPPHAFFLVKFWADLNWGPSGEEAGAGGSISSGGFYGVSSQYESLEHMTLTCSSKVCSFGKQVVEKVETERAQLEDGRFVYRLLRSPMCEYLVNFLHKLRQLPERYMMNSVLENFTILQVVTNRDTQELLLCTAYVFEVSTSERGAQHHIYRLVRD

| SMILES | inhibition at 10 µM (Table 3) | other results |
| --- | --- | --- |
| O=C(Nc1ccc(C23CC4CC(CC(C4)C2)C3)cc1)c1cccnc1Nc1cccc(C(F)(F)F)c1 | – | inhibition at 10 µM: 50% |
| C=CC(=O)c1ccccc1Nc1ccc(Nc2ccc(C34CC5CC(CC(C5)C3)C4)cc2)cc1 | – | inhibition at 10 µM: 5% |
| O=C(Nc1ccc(C23CC4CC(CC(C4)C2)C3)cc1)c1ccc2nc[nH]c2c1 | – | inhibition at 10 µM: 5% |
| O=C(OCC(O)CO)c1ccccc1Nc1ccc(Nc2ccc(C34CC5CC(CC(C5)C3)C4)cc2)cc1 (stereo not shown) | – | inhibition at 10 µM: 80% |
| O=C(Nc1ccc(C23CC4CC(CC(C4)C2)C3)cc1)Nc1ccc2nc[nH]c2c1 | – | inhibition at 10 µM: 20% |
| Clc1cc(C23CC4CC(CC(C4)C2)C3)ccc1Nc1ccc(Nc2ccccc2-c2nnn[nH]2)cc1 | – | inhibition at 10 µM: 20% |
| O=C(Nc1ccc(C23CC4CC(CC(C4)C2)C3)cc1Cl)c1ccc2nc[nH]c2c1 | – | inhibition at 10 µM: 20% |
| O=C(CN1CCC[C@H]1C(=O)O)Nc1ccc(C23CC4CC(CC(C4)C2)C3)cc1 | – | inhibition at 10 µM: 8% |
| N#Cc1cc(Nc2ccc(C34CC5CC(CC(C5)C3)C4)cc2)ccc1Nc1ccccc1C(=O)O | – | inhibition at 10 µM: 80% |
| CC(C)(C)OC(=O)c1ccc(Nc2ccc(Nc3ccccc3C(=O)O)cc2)cc1 | – | inhibition at 10 µM: 100% |
| CC(C)c1ccccc1-c1ccc(NC(=O)CC2CN(C(=O)OC(C)(C)C)C2)cc1 | – | inhibition at 10 µM: 100% |
| O=C(Nc1ccc(Nc2ccc(C34CC5CC(CC(C5)C3)C4)cc2Cl)cc1)[C@H]1CCC[C@H]1C(=O)O (stereo in doubt) [compound 288] | – | inhibition at 10 µM (Table 2): 53% |
| CC(C)COc1ccc(Nc2ccc(N(C)c3ccc(C45CC6CC(CC(C6)C4)C5)cc3)cc2)c(C(=O)O)c1 [CP-453] | – | inhibition at 10 µM (Table 2): 0% |
| COCCC(=O)Nc1ccc(C(=O)OC)c(Nc2ccc(N(C)c3ccc(C45CC6CC(CC(C6)C4)C5)cc3)cc2)c1 [CP-472] | 1% | – |
| COc1ccc(Nc2ccc(N(C)c3ccc(C45CC6CC(CC(C6)C4)C5)cc3)cc2)c(CO)c1 [CP-516] | 20% | – |
| CN(C)CCOc1ccc(Nc2ccc(N(C)c3ccc(C45CC6CC(CC(C6)C4)C5)cc3)cc2)c(C(=O)O)c1 [CP-526] | 23% | – |
| COCCOc1ccc(Nc2ccc(N(C)c3ccc(C4CCCCC4)cc3)cc2)c(C(=O)O)c1 [CP-536] | 84% | – |
| COc1ccc(Nc2ccc(N(C)c3ccc(C45CC6CC(CC(C6)C4)C5)cc3)cc2F)c(C(=O)O)c1 [CP-537] | 73% | – |
| O=C(O)c1ccccc1Nc1cnc(Oc2ccc(C34CC5CC(CC(C5)C3)C4)cc2Cl)cn1 [CP-540] | 75% | – |
| O=C(O)c1ccccc1Nc1ccc(Oc2ccc(C(F)(F)F)cc2Cl)cc1 [CP-543] | 98% | – |
| COc1ccc(Nc2ccc(N(C)c3ccccc3OC)cc2)c(C(=O)O)c1 [CP-545] | 6% | – |
| COc1ccc(Nc2ccc(N(C)c3ccc(C4CCC(F)(F)CC4)cc3)cc2)c(C(=O)O)c1 [CP-552] | 74% | – |
| COc1ccc(Nc2ccc(N(C)c3ccc(C4CCC4)cc3)cc2)c(C(=O)O)c1 [CP-556] | 61% | – |
| O=C(O)c1ccccc1Nc1cnc(Oc2ccc(C3CCCCC3)cc2Cl)cn1 [CP-559] | 79% | – |
| Cc1cc(Oc2ccc(C34CC5CC(C)(CC(C)(C5)C3)C4)cc2Cl)ccc1Nc1ccccc1C(=O)O [CP-561] | 90% | – |

| SMILES | inhibition at 10 µM (Table 3) | other results |
| --- | --- | --- |
| COc1ccc(Nc2ccc(N(C)c3ccc(CN4CCCCC4)cc3)cc2)c(C(=O)O)c1 [CP-567] | 6% | – |
| COc1ccc(Nc2ccc(N(C)c3ccc(OCC(F)(F)F)cc3)cc2F)c(C(=O)O)c1 [CP-568] | 46% | – |
| COc1ccc(Nc2ccc(F)cc2Oc2ccc(C34CC5CC(C)(CC(C)(C5)C3)C4)cc2Cl)c(C(=O)O)c1 [CP-569] | 59% | – |
| COc1ccc(Nc2ccc(N(C)c3ccc(C(F)(F)F)cc3)cc2F)c(C(=O)O)c1 [CP-572] | 72% | – |
| COc1ccc(Nc2ccc(N(C)c3ccc(S(F)(F)(F)(F)F)cc3)cc2F)c(C(=O)O)c1 [CP-573] | 74% | – |
| COc1ccc(Nc2ccc(N(C)c3ccc(C4CCC(C)CC4)cc3)cc2)c(C(=O)O)c1 (stereo not shown) [CP-574] | 91% | – |
| COc1ccc(Nc2ccc(N(C)c3ccc(C4CC5CCC4C5)cc3)cc2C)c(C(=O)O)c1 (stereo not shown) [CP-577] | 79% | – |
| COc1ccc(Nc2ccc(N(C)c3ccc(C4CCCCC4)cn3)cc2)c(C(=O)O)c1 [CP-581] | 40% | – |
| COc1ccc(Nc2ccc(N(C)c3ccc(C4CCN(C)CC4)cc3)cc2)c(C(=O)O)c1 [CP-582] | 0% | – |
| COc1ccc(Nc2cccc(C(=O)Nc3ccc(C(F)(F)F)cc3)c2)c(C(=O)O)c1 [CP-586] | 40% | – |
| COc1ccc(Oc2ccc(N(C)c3ccc(C(F)(F)F)cc3)cc2)c(C(=O)O)c1 [CP-587] | 36% | – |
| COc1ccc(Nc2ccc(N(C)c3nc(C(F)(F)F)cs3)cc2)c(C(=O)O)c1 [CP-588] | 36% | – |
| COc1ccc(Nc2ccc(N(C)c3ccc(C(F)(F)F)cc3)nc2)c(C(=O)O)c1 [CP-592] | 40% | – |
| COc1ccc(Nc2cnc(N(C)c3ccc(C4CCCCC4)cc3)nc2)c(C(=O)O)c1 [CP-594] | 46% | – |
| COc1ccc(Nc2ccc(N(C)c3ccc(S(F)(F)(F)(F)F)cc3)nc2)c(C(=O)O)c1 [CP-595] | 51% | – |
| COc1ccc(Nc2ccc(N(C)c3ccc(OC(F)(F)F)cc3)nc2)c(C(=O)O)c1 [CP-596] | 48% | – |
| COc1ccc(Nc2ccc(N(C)c3nc(C4CCCCC4)cs3)cc2)c(C(=O)O)c1 [CP-597] | 63% | – |
| COc1ccc(Nc2ccc(Oc3ccc(OC(F)(F)F)cc3Cl)nc2)c(C(=O)O)c1 [CP-600] | 37% | – |
| COc1ccc(Nc2ccc(Oc3ccc(C(F)(F)F)cc3Cl)nc2)c(C(=O)O)c1 [CP-601] | 46% | – |
| COc1ccc(Nc2cnc(N(C)c3ccc(C(F)(F)F)cc3)nc2)c(C(=O)O)c1 [CP-602] | 5% | – |
| CNC(=O)c1cc(OC)ccc1Nc1ccc(N(C)c2ccc(C(F)(F)F)cc2)cc1 [CP-606] | 63% | – |
| COc1ccc(Nc2cnc(N(C)c3ccc(C4CCCCC4)cc3)cc2C)c(C(=O)O)c1 [CP-609] | 54% | – |
| CNS(=O)(=O)c1ccc(Nc2ccc(N(C)c3ccc(C4CCCCC4)cc3)cc2C)c(C(=O)O)c1 [CP-614] | 83% | – |
| COc1ccc(Nc2ccc(Oc3ccc(S(F)(F)(F)(F)F)cc3Cl)nc2)c(C(=O)O)c1 [CP-615] | 82% | – |

Second part, led by results:

| inhibition at 10 µM (Table 3) | SMILES | other results |
| --- | --- | --- |
| 50% | COCCC(=O)Nc1ccc(C(=O)O)c(Nc2ccc(N(C)c3ccc(C45CC6CC(CC(C6)C4)C5)cc3)cc2)c1 [CP-473] | – |
| 54% | COc1ccc(Nc2ccc(N(C)c3ccc(Cl)cc3)cc2)c(C(=O)O)c1 [CP-535] | – |
| 80% | CN(c1ccc(Nc2ncccc2C(=O)O)cc1)c1ccc(C(F)(F)F)cc1 [CP-541] | – |
| 49% | COc1ccc(Nc2ccc(N(C)c3ccc(Cl)cc3Cl)cc2)c(C(=O)O)c1 [CP-542] | – |
| 98% | COc1ccc(Nc2ccc(Oc3ccc(C(F)(F)F)cc3Cl)cc2)c(C(=O)O)c1 [CP-544] | – |
| 18% | COc1ccc(Nc2ccc(N(C)c3ccc(N4CCOCC4)cc3)cc2)c(C(=O)O)c1 [CP-547] | – |
| 34% | COc1ccc(Nc2ccc(N(C)c3ccc(C4=CCC(F)(F)CC4)cc3)cc2)c(C(=O)O)c1 [CP-557] | – |
| 66% | CN(c1ccc(Nc2ncccc2C(=O)O)cc1)c1ccc(C2CCCCC2)cc1 [CP-558] | – |
| 80% | COc1ccc(Nc2ccc(N(C)c3ccc(C(F)(F)F)cc3)cc2C)c(C(=O)O)c1 [CP-563] | – |
| 89% | COc1ccc(Nc2ccc(Oc3ccc(C45CC6CC(C)(CC(C)(C6)C4)C5)cc3Cl)cc2C)c(C(=O)O)c1 [CP-564] | – |
| 47% | COc1ccc(Nc2ccc(Oc3ccc(C(F)F)cc3Cl)cc2)c(C(=O)O)c1 [CP-575] | – |
| 42% | COc1ccc(Nc2ccc(N(C)c3ccc(C(F)(F)F)cn3)cc2)c(C(=O)O)c1 [CP-576] | – |
| 31% | COc1ccc(Nc2ccc(N(C)c3ccc(C4CCCCC4)nc3)cc2)c(C(=O)O)c1 [CP-578] | – |
| 61% | Cc1cc(N(C)c2ccc(C3CCCCC3)cc2)ccc1Nc1ccc(C(F)(F)F)cc1C(=O)O [CP-579] | – |
| 58% | Cc1cc(N(C)c2ccc(C3CCCCC3)cc2)ccc1Nc1ccc(OC(F)(F)F)cc1C(=O)O [CP-580] | – |
| 88% | COc1ccc(Nc2ccc(Oc3ccc(C4CCCCC4)cc3Cl)nc2)c(C(=O)O)c1 [CP-591] | – |
| 57% | COc1ccc(Nc2cnc(Oc3ccc(C4CCCCC4)cc3Cl)cc2C)c(C(=O)O)c1 [CP-599] | – |
| 83% | COc1ccc(Nc2ccc(N(C)c3ccc(C4CCC(C(F)(F)F)CC4)cc3)cc2)c(C(=O)O)c1 (stereo not shown) [CP-603] | – |
| 47% | COc1ccc(Nc2ccc(N(C)c3ccc(C(F)(F)F)cc3)cc2)c(C(N)=O)c1 [CP-605] | – |
| 37% | COc1ccc(Nc2ccc(N(C)c3ccc(C(F)(F)F)cc3)cc2)c(C(=O)N(C)C)c1 [CP-607] | – |
| 43% | COc1ccc(Nc2ccc(N(C)c3ccc(C(F)(F)F)cc3)cc2)c(C#N)c1 [CP-608] | – |
| 86% | COc1ccc(Nc2ccc(N(C)c3cc(Cl)cc(Cl)c3)cc2)c(C(=O)O)c1 [CP-612] | – |
| 83% | CN(c1ccc(Nc2ccc(NS(C)(=O)=O)cc2C(=O)O)cc1)c1ccc(C(F)(F)F)cc1 [CP-613] | – |
| 73% | COc1ccc(Nc2cnc(Oc3ccc(C4CCCCC4)cc3Cl)nc2)c(C(=O)O)c1 [CP-616] | – |
